Results: patent US10300140B2, “Sur-binding proteins against ERBB3” (I2 PHARMACEUTICALS, INC., priority 2012, dated 2019)

System: SKBR3 and BT474 cells
Assay: Enhancement of MK-2206 in SKBR3 and BT474 proliferation
Assay type: cell-based, human
Conditions: 0.125 or 0.375 nM NRG; single agent
Method: The ability of the SgGs to enhance AKT inhibition in unstimulated or NRG-stimulated SKBR3 cells was compared. An AKT inhibitor, MK-2206, was tested against the ErbB2 overexpressing cell lines SKBR3 (13I, 13J) and BT474 (13K, 13L). The indicated amounts of MK-2206 were applied to the cells and they were allowed to proliferate in complete medium containing 10% fetal bovine serum for 6 days (13I, 13K, 13L) or 3 days (13J). Cell content was measured using Cell Titer-Glo® (Promega).

Structure (SMILES): NC1(c2ccc(-c3nc4ccn5c(=O)[nH]nc5c4cc3-c3ccccc3)cc2)CCC1 [MK-2206]
- ability to inhibit cell proliferation when cells stimulated with NRG: dramatically reduced
